From PubChem BioAssay (NCI)
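Following 48 hours of exposure in 96-well plates, responses at five concentrations were used to interpolate endpoints linearly. TGI is the concentration that stops growth completely.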

Legend:
Assay in all cases: NCI-60 cell line screen, 48 h
A549 NSCLC = tested on: A549 NSCLC
ACHN renal = tested on: ACHN renal
BT-549 breast = tested on: BT-549 breast
DU-145 prostate = tested on: DU-145 prostate
HCC-2998 colon = tested on: HCC-2998 colon
HS 578T breast = tested on: HS 578T breast
KM12 colon = tested on: KM12 colon
M14 melanoma = tested on: M14 melanoma
NCI-H23 lung = tested on: NCI-H23 lung
NCI/ADR-RES ovarian = tested on: NCI/ADR-RES ovarian
OVCAR-3 ovarian = tested on: OVCAR-3 ovarian
OVCAR-4 ovarian = tested on: OVCAR-4 ovarian
OVCAR-5 ovarian = tested on: OVCAR-5 ovarian
PC-3 prostate = tested on: PC-3 prostate
SK-MEL-28 melanoma = tested on: SK-MEL-28 melanoma
SK-MEL-5 melanoma = tested on: SK-MEL-5 melanoma
SW-620 colon = tested on: SW-620 colon
U251 CNS = tested on: U251 CNS
UO-31 renal = tested on: UO-31 renal
SF-539 CNS = tested on: SF-539 CNS

| Structure (SMILES) | TGI (A549 NSCLC) [µM] | TGI (ACHN renal) [µM] | TGI (BT-549 breast) [µM] | TGI (DU-145 prostate) [µM] | TGI (HCC-2998 colon) [µM] | TGI (HS 578T breast) [µM] | TGI (KM12 colon) [µM] | TGI (M14 melanoma) [µM] | TGI (NCI-H23 lung) [µM] | TGI (NCI/ADR-RES ovarian) [µM] | TGI (OVCAR-3 ovarian) [µM] | TGI (OVCAR-4 ovarian) [µM] | TGI (OVCAR-5 ovarian) [µM] | TGI (PC-3 prostate) [µM] | TGI (SK-MEL-28 melanoma) [µM] | TGI (SK-MEL-5 melanoma) [µM] | TGI (SW-620 colon) [µM] | TGI (U251 CNS) [µM] | TGI (UO-31 renal) [µM] | TGI (SF-539 CNS) [µM] |
| --- | --- | --- | --- | --- | --- | --- | --- | --- | --- | --- | --- | --- | --- | --- | --- | --- | --- | --- | --- | --- |
| C=C[C@@]1(C)CC[C@@H]2[C@@]3(C1)O[C@H]3CC1[C@](C)(C(=O)OC)CCC[C@@]12C (some centres undefined) | 54.7 | 29.5 | 67.2 | > 100 | 31.6 | 44.2 | > 100 | 39.7 | 57.2 | 42.1 | 31.9 | > 100 | 32.3 | > 100 | 42.1 | 33.7 | 41.9 | 49.6 | 31.8 | – |
| O=C1Nc2ccccc2C1=Nc1cccc2ncccc12 | > 100 | > 100 | > 100 | > 100 | – | > 100 | > 100 | > 100 | > 100 | > 100 | > 100 | > 100 | > 100 | > 100 | > 100 | > 100 | > 100 | > 100 | > 100 | > 100 |
| COC(=O)C1=C(C)C(=O)[C@]23C(CCCC[C@H]12)C(=O)[C@H](C(=O)OC)C3C (some centres undefined) | > 100 | > 100 | > 100 | > 100 | > 100 | > 100 | > 100 | > 100 | > 100 | > 100 | > 100 | > 100 | > 100 | > 100 | > 100 | – | > 100 | > 100 | > 100 | > 100 |
| CCOC(=O)c1cc(=O)c2ccnc3c2n1CCS3 | > 100 | > 100 | > 100 | > 100 | – | > 100 | > 100 | > 100 | > 100 | > 100 | > 100 | – | > 100 | > 100 | > 100 | > 100 | > 100 | > 100 | > 100 | > 100 |
| COC(=O)[C@H](Cc1ccccc1)NP(=O)(OCCC#N)OCC1OC(n2cc(C)c(=O)[nH]c2=O)CC1N=[N+]=[N-] (some centres undefined) | > 100 | > 100 | > 100 | > 100 | > 100 | > 100 | > 100 | > 100 | > 100 | > 100 | – | > 100 | > 100 | > 100 | – | > 100 | > 100 | > 100 | > 100 | – |
| C/C(=C(/C)c1ccc(O)cc1)c1ccc(O)cc1 | > 100 | > 100 | > 100 | > 100 | > 100 | 75.6 | > 100 | > 100 | > 100 | > 100 | > 100 | – | > 100 | > 100 | – | 50 | > 100 | > 100 | > 100 | > 100 |
| O=C(O)Cc1c(-c2ccc([N+](=O)[O-])cc2)c(=O)oc2cc(O)ccc12 | > 100 | 91.8 | 59.1 | > 100 | 55.5 | 71.9 | 93.5 | > 100 | > 100 | 54.6 | 46.2 | – | 98.9 | 94.5 | > 100 | 33.3 | > 100 | 53.5 | 83.6 | 82 |
| COc1cc(C2=C(c3cc(OC)c4ccccc4c3OC)C(=O)c3ccccc3C2=O)c(OC)c2ccccc12 | > 100 | > 100 | > 100 | > 100 | – | > 100 | > 100 | > 100 | > 100 | > 100 | > 100 | > 100 | > 100 | > 100 | > 100 | > 100 | > 100 | > 100 | > 100 | > 100 |
| CN(C)CCCNC(=O)c1c(O)c2ccccc2[nH]c1=O | > 100 | > 100 | > 100 | > 100 | > 100 | > 100 | > 100 | – | > 100 | > 100 | > 100 | > 100 | > 100 | > 100 | > 100 | > 100 | > 100 | – | 58.6 | > 100 |
| Cc1c(C)c(C)c(-n2c(=O)n(C)c(=O)n2-n2c(=O)n(C)c(=O)n2-c2c(C)c(C)c(C)c(C)c2C)c(C)c1C | > 100 | – | > 100 | > 100 | > 100 | > 100 | > 100 | > 100 | – | > 100 | > 100 | > 100 | > 100 | > 100 | > 100 | > 100 | > 100 | > 100 | > 100 | > 100 |
| COc1ccc(OC)c(-c2nc3n(c2/C=C2/C(=O)Nc4ccccc42)CCS3)c1 | > 100 | > 100 | > 100 | > 100 | – | > 100 | > 100 | > 100 | > 100 | > 100 | > 100 | > 100 | > 100 | > 100 | > 100 | > 100 | > 100 | > 100 | > 100 | > 100 |
| O=c1cc(-c2ccccc2)[nH]c2ccc(N3CCOCC3)cc12 | – | > 91 | > 100 | > 32.9 | > 100 | > 100 | 0.446 | > 79.2 | – | > 100 | 39.2 | > 100 | > 100 | > 100 | 44.7 | 14.3 | > 100 | > 35.8 | > 100 | 0.615 |
| CCOC(=O)c1nnsc1NC(=O)Nc1ccc(Cc2ccc(NC(=O)Nc3snnc3C(=O)OCC)cc2)cc1 | > 100 | > 100 | > 100 | > 100 | > 100 | > 100 | > 100 | > 100 | > 100 | > 100 | > 100 | > 100 | > 100 | > 100 | > 100 | 93 | > 100 | > 100 | > 100 | – |
| CC(Cc1ccccc1)Nc1ncnc2c1ncn2C1OC(CO)CC1O (centres undefined) | > 100 | > 100 | > 100 | > 100 | > 100 | > 100 | > 100 | > 100 | > 100 | > 100 | > 100 | > 100 | > 100 | > 100 | > 100 | > 100 | > 100 | > 100 | > 100 | – |
| CC(=O)N1C(OC(C)C)CC(C)N1c1ccccc1 (centres undefined) | > 10 | > 10 | > 10 | > 10 | > 10 | > 10 | – | > 10 | > 10 | > 10 | > 10 | > 10 | > 10 | > 10 | > 10 | > 10 | > 10 | – | – | > 10 |
| CC1(C)CC(C2=NCCO2)CC(C)(C)N1 | > 100 | > 100 | > 100 | > 100 | – | > 100 | – | > 100 | > 100 | > 100 | > 100 | > 100 | > 100 | > 100 | > 100 | > 100 | – | > 100 | > 100 | > 100 |
| OCCOCCN1CCN(CCCN2c3ccccc3Sc3ccc(C(F)(F)F)cc32)CC1 | 27.1 | 31.8 | 35.4 | 27.6 | 13 | 38.9 | 20.2 | 5.39 | 31 | – | 33 | 30.2 | 27.3 | 29.6 | 9.55 | 13.8 | 29.6 | 24.7 | 20.6 | 25.9 |
| Cc1ccc2nc(Cl)c(/C=N/N3C(=O)/C(=C/c4cccc([N+](=O)[O-])c4)N=C3c3ccccc3)cc2c1 | > 100 | > 100 | > 100 | > 100 | > 100 | > 100 | > 100 | > 100 | – | > 100 | > 100 | > 100 | > 100 | 76.9 | > 100 | > 100 | > 100 | > 100 | > 100 | > 100 |
| N#CC(C#N)=C1c2ccccc2C(=NN)c2ccccc21 | – | > 63.9 | > 100 | > 100 | > 100 | > 91.5 | > 100 | > 100 | – | > 100 | > 100 | – | > 100 | > 100 | > 100 | > 100 | > 100 | > 100 | > 100 | > 100 |
| Cc1ccc(C2=Nn3c(nc4sc(C)c(C)c4c3=O)SC2)cc1 | > 100 | > 100 | > 100 | > 100 | > 100 | > 100 | > 100 | – | > 100 | > 100 | > 100 | > 100 | > 100 | > 100 | > 100 | > 100 | > 100 | > 100 | > 100 | > 100 |
| COc1cc(C=O)cc(/C=N/n2c3ccccc3c3ccccc32)c1O | > 100 | > 100 | 9.7 | > 100 | 67.4 | > 100 | > 100 | > 100 | > 100 | – | > 100 | > 100 | > 100 | > 100 | > 100 | – | > 100 | > 100 | > 100 | > 100 |
| O=C(O)c1cc(CC2Cc3cc4c(cc3C2=O)CCC4)cc2c1CCC2 (centres undefined) | > 100 | > 100 | > 100 | > 100 | > 100 | > 100 | > 100 | > 100 | > 100 | > 100 | > 100 | > 100 | > 100 | > 100 | > 100 | – | > 100 | > 100 | > 100 | > 100 |
| N#C[C@@H](c1nc2ccccc2s1)c1ncccc1[N+](=O)[O-] | 18.1 | > 31.6 | 26.9 | > 31.6 | 28.5 | 27.6 | > 62.9 | > 31.6 | 16.1 | 19.4 | 10.6 | > 100 | > 31.6 | 18.1 | – | 37.3 | – | 11.7 | 25.6 | – |
| Cc1ccc([N+](=O)[O-])cc1S(=O)(=O)Nc1ccc(C2=NOC(c3ccco3)C2)cc1 (centres undefined) | 59.7 | 49 | 39.2 | 39.3 | 31.9 | > 100 | 24.7 | 32.8 | 37.4 | 52.6 | 30.7 | 32.7 | 52.2 | 40.5 | 43.5 | 27.7 | 58.9 | – | 32.8 | 68.3 |
| COc1cc(C(=O)/C=C/c2ccc(OCC#N)cc2)cc(OC)c1OC | 50.9 | 51.8 | 32 | 79.8 | 30.6 | > 100 | 32 | – | 43.2 | 48.3 | 59.5 | > 100 | > 100 | 38 | 32 | 25.9 | 37.3 | 33.4 | 31.4 | 33.2 |
